Data on 3 compounds can be found in ChEMBL document CHEMBL1201862, “PubChem BioAssay data set” (2004).

Activity calls are given as the source filed them.

For test [1], the target named is Eukaryotic translation initiation factor 4H (Homo sapiens, UniProt Q15056). The test can be described thus: eIF4H inhibition in translation initiation, SAR follow-up (AID 435011). Format: functional.
The target in test [2] is Polyadenylate-binding protein 1 (Homo sapiens, UniProt P11940). The test is described as follows: PABP inhibition in translation initiation, SAR follow-up (AID 435018). Format: functional.
Test [3] deals with T1, RNA-binding protein pos-1 (Caenorhabditis elegans, UniProt G5EF15).
T1 sequence (G5EF15 whole entry): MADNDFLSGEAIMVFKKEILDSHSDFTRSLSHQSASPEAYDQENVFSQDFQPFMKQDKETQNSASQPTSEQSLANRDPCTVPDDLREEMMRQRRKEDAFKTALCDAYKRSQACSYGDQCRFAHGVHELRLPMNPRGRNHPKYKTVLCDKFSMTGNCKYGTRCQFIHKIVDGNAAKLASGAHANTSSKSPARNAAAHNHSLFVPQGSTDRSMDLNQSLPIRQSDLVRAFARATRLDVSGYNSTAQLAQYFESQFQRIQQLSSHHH
The test can be described thus: inhibitors of POS-1/mex-3 RNA binding, dose response, biochemical, fluorescence polarization (AID 1964).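 Further: purified POS-1 fused to maltose binding protein made in E. coli; potency of compounds blocking POS-1 binding to fluorescent RNA.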 In general terms: In fluorescence polarisation assays a small probe gives low polarisation when free and higher when bound to something large.

For test [4], the target named is T2, Zinc finger protein mex-5 (Caenorhabditis elegans, UniProt Q9XUB2).
T2 sequence (Q9XUB2 whole entry): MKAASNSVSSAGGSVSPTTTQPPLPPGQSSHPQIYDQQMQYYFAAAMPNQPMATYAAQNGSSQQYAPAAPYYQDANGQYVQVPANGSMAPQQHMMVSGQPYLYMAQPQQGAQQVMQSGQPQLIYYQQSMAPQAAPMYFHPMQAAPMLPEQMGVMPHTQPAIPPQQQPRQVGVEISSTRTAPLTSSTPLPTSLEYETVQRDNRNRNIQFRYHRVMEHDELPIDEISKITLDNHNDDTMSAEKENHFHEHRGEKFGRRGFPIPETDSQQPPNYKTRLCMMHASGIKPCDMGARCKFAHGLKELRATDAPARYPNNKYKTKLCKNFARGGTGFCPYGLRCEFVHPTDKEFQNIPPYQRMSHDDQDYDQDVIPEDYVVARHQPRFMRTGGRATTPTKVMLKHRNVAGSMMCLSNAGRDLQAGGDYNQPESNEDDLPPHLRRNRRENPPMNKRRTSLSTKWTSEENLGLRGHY
The test is described as follows: MEX-5/TCR-2 RNA interaction inhibitors, dose response, biochemical, C. elegans, fluorescence polarization (AID 1960).

The nature of test [5]: growth suppression of PTEN-null colon cells, dose response, cell-based, HCT116 PTEN knockout (AID 1047).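 Further: HCT116 colon tumor cells with PTEN knocked out; cells exposed to compound for 60 hours before readout; potency for loss of cell viability measured by luminescence.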 Format: functional.
Test [6] can be described thus: growth suppression of beta-catenin-knockout colon cells, dose response, cell-based, HCT116, human colon tumor (AID 1045).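 Further: HCT116 colon tumor cells with beta catenin knocked out; cells exposed to compound for 60 hours.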 Type of test: functional.
The next test has as its target ORF 73 (Human herpesvirus 8, UniProt O40947). The test is described as follows: inhibitors of C-LANA binding to LBS DNA, dose response, biochemical, fluorescence polarization, cherry-picked samples (AID 504725).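 Further: fluorescence polarization of a labeled DNA duplex reporting LANA DNA binding; potency is for inhibitors that block LANA binding to the DNA.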 Also noted: species or system Human gammaherpesvirus 8.
The target of a further test is Troponin, cardiac muscle (Homo sapiens, UniProt P19429+P45379+P63316). The test can be described thus: Fluorescence-based biochemical high throughput dose response assay for activators of the calcium sensitivity of cardiac Regulated Thin Filaments (RTF). [Related pubchem assays (depositor defined):AID493008, AID493018, AID504382, AID504383]. Type of test: protein-complex assay.

For another test, the target named is Keap1/Nrf2 (Homo sapiens, UniProt Q14145). The test can be described thus: Keap1-Nrf2 protein-protein interaction inhibitors, dose response, biochemical, fluorescence polarization, cherry-picked samples (AID 588683).
Test [7] addresses Dual specificity tyrosine-phosphorylation-regulated kinase 1A (Rattus norvegicus, UniProt Q63470). Format: biochemical, Homo sapiens.
Test [8] has as its target T3, Long-chain-fatty-acid--AMP ligase FadD28 (Mycobacterium tuberculosis, UniProt P9WQ59).
T3 sequence (P9WQ59 whole entry): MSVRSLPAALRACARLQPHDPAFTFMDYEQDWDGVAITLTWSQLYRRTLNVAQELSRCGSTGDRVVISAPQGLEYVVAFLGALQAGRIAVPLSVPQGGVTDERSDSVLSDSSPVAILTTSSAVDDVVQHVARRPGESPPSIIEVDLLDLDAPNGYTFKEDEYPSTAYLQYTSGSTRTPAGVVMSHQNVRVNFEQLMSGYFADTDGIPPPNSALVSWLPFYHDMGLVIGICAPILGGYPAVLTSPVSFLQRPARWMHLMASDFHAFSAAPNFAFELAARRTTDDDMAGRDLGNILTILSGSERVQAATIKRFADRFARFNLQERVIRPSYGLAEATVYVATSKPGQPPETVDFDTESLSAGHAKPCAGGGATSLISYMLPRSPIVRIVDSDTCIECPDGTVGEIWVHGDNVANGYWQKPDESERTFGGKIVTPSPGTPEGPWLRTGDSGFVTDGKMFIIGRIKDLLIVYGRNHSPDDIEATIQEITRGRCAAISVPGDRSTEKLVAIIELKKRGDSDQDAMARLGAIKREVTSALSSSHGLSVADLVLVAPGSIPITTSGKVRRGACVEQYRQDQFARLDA
The test can be described thus: Fluorescence polarization aasay to screen for inhibitors that compete for the binding of FadD28 to a bisubstrate Measured in Biochemical System Using Plate Reader - 2147-01_Inhibitor_Dose_CherryPick_Activity. Format: functional, Mycobacterium tuberculosis H37Rv.

For test [9], the target named is T4, Fibrinogen beta chain (Homo sapiens, UniProt P02675). The test is described as follows: Fluorescence polarization-based biochemical high throughput dose response assay to identify inhibitors that disrupt the binding of a cyclic peptide (Tn6) to the fibrin proteolytic product D-Dimer and fragment E complex [DD(E )].
For test [10], the target named is T4, Fibrinogen beta chain. The test can be described thus: Fluorescence polarization-based biochemical high throughput dose response assay to identify inhibitors that disrupt the binding of a cyclic peptide (Tn7) to the fibrin proteolytic product D-Dimer and fragment E complex [DD(E )].
For test [11], the target named is T5, Dual specificity protein phosphatase 3 (Homo sapiens, UniProt P51452). The test is described as follows: SAR VHR1 absorbance Assay for In Vitro dose response studies. [Related pubchem assays (depositor defined):AID1654, AID1661, AID1878, AID1992, AID2004].
For test [12], the target named is T5, Dual specificity protein phosphatase 3. The test is described as follows: SAR VHR1 Fluorescent Assay for In Vitro dose response studies. [Related pubchem assays (depositor defined):AID1654, AID1661, AID1878, AID1992, AID2004, AID2070, AID2085]. Format: functional.
Test [13] concerns the target T6, Tyrosine-protein phosphatase non-receptor type 7 (Homo sapiens, UniProt P35236).
T6 sequence (P35236 whole entry): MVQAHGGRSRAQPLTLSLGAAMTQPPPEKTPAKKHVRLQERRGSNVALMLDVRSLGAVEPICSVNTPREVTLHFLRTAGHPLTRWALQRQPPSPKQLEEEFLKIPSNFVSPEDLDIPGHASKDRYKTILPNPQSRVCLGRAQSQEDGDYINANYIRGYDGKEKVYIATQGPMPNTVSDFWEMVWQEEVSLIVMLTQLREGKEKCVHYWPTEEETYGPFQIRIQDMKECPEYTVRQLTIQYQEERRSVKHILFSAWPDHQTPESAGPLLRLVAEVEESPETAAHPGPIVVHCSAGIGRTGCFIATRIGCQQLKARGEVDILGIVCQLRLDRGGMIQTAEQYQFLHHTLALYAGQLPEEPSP
The test can be described thus: redox-dependent HePTP inhibition, mechanism study, biochemical, fluorescence (AID 2068). Type of test: functional.

Test [14] has as its target T7, Dual specificity protein phosphatase 6 (Rattus norvegicus, UniProt Q64346).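 Further: confirmatory in vitro dose-response testing of MKP-3 inhibition; recombinant His-tagged MKP-3 made in E. coli BL21 with OMFP substrate.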
T7 sequence (Q64346 whole entry): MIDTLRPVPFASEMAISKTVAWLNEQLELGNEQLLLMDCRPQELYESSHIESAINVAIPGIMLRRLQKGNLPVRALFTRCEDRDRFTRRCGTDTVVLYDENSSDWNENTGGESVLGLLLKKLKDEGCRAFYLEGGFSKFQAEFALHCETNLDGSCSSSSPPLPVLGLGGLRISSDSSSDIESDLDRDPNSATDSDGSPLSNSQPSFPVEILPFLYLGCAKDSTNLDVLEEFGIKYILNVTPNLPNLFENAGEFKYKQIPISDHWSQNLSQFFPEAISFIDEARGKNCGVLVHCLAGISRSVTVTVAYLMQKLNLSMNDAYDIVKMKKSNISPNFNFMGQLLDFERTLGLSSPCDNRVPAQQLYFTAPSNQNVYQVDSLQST
Type of test: functional.

T4 sequence (P02675 whole entry, the tested form may be a part): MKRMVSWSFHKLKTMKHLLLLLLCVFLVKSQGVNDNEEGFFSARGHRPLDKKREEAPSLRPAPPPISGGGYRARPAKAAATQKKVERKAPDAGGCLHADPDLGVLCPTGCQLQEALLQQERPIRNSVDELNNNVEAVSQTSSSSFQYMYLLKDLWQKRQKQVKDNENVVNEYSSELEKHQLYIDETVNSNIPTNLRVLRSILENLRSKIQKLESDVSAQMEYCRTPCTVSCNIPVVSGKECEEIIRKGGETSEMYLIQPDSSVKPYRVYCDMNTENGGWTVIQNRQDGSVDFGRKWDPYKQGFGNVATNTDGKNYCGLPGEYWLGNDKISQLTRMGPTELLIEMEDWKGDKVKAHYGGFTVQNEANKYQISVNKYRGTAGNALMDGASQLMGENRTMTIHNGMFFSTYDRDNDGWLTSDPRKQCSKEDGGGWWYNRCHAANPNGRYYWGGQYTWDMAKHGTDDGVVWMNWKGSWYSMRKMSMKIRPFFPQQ
T5 sequence (P51452 whole entry): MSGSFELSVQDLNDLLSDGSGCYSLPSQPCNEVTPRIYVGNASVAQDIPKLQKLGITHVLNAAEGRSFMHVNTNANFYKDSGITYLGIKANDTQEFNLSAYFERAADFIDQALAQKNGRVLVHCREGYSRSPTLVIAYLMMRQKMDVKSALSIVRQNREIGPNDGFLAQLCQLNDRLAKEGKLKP
Chain of Polyadenylate-binding protein 1 (P11940 whole entry): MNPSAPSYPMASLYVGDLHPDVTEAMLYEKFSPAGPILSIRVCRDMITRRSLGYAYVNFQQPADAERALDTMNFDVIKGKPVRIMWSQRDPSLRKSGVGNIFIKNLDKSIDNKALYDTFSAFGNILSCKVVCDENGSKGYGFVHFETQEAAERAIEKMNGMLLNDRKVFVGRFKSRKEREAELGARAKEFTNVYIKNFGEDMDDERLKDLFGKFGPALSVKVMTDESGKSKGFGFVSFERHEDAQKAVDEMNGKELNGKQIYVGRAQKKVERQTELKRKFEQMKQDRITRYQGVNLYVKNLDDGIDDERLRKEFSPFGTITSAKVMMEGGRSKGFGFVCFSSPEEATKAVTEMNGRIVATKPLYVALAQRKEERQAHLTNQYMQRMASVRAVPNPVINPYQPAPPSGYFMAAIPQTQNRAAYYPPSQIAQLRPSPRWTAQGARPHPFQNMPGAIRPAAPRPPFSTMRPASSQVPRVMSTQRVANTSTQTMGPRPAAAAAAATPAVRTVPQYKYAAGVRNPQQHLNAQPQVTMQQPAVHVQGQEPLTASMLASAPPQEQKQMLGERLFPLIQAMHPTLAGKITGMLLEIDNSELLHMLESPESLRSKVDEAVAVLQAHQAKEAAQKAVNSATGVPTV
Chain of ORF 73 (O40947 whole entry): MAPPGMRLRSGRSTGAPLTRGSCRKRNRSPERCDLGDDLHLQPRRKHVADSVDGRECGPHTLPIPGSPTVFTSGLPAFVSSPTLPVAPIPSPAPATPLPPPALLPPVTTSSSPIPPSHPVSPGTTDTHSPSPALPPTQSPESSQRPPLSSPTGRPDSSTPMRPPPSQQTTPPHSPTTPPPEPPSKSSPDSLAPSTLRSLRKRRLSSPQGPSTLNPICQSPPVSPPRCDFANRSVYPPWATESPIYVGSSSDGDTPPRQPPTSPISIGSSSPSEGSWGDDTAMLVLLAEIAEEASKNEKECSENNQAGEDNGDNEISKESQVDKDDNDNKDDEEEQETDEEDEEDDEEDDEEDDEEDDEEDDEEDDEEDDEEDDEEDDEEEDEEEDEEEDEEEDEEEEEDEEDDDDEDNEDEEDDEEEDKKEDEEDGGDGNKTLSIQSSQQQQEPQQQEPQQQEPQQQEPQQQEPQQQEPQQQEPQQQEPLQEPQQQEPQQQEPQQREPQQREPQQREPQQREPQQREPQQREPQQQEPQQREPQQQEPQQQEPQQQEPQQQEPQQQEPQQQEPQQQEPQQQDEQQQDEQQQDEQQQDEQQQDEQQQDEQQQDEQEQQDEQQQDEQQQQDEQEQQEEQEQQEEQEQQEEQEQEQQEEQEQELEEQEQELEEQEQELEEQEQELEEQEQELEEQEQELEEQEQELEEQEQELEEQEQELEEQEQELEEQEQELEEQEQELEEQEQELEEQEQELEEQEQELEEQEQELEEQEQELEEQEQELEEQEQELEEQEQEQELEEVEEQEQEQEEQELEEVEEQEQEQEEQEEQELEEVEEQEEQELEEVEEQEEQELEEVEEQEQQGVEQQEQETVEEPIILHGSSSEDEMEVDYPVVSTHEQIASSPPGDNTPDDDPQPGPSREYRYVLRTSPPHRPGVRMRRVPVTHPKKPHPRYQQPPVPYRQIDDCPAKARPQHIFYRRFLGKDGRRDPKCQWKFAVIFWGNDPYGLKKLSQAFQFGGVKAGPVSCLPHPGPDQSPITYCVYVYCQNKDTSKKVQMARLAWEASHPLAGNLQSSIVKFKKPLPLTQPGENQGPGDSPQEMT
Chain of Keap1/Nrf2 (Q16236 whole entry): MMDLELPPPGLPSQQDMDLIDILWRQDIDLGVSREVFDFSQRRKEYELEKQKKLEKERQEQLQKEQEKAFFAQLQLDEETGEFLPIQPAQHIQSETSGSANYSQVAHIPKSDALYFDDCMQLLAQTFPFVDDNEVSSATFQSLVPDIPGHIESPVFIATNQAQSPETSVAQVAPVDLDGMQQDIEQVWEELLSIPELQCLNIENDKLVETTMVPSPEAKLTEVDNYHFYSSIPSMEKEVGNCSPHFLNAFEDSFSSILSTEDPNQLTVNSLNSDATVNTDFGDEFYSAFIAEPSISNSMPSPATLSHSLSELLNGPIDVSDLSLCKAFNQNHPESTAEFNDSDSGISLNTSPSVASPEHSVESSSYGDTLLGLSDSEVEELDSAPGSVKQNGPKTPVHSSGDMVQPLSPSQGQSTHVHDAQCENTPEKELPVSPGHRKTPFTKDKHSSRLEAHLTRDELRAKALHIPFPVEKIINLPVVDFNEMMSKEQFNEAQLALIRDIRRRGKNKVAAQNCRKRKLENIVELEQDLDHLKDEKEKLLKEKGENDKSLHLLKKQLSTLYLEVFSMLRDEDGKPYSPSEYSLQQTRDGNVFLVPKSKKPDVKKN
Chain of Keap1/Nrf2 (Q14145 whole entry): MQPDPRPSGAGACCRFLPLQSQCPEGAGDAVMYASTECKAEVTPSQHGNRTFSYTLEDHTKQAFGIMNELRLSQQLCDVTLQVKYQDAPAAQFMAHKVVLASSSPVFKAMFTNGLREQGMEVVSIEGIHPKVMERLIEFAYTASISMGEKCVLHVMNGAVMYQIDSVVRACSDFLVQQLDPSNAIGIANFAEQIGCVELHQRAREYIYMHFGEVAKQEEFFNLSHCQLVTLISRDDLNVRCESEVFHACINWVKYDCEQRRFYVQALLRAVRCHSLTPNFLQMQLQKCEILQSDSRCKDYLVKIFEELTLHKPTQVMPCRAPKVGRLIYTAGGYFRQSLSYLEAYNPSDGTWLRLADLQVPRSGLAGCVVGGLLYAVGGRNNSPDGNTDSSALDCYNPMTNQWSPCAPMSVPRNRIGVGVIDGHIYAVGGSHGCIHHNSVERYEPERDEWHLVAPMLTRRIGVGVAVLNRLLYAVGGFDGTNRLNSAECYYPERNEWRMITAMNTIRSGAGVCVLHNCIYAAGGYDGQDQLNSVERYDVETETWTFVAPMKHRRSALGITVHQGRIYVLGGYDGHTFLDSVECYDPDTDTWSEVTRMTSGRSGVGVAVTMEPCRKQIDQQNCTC

One may read the IC50 as the concentration that inhibits the measured activity by half. Regarding `COc1ccc(NC(=O)C2CC(=O)N(C)/C(=N\c3ccccc3OC)S2)cc1` (configuration not stated), the IC50 in test [1] and in test [2] was > 100 µM (inactive) in each case.
For orientation: EC50 means the concentration needed to bring the measured effect to its halfway point. Broadly, the AC50 is the concentration giving half of the maximal activity seen. For the compound `N#CC1=C(N)Oc2ccc3ccc(O)cc3c2C1c1ccsc1` (configuration not stated), the EC50 in test [3] is 76.1 µM (inconclusive); in [4], 11 µM (inconclusive); in test [5] it was 10.4 µM (active); in test [6], 15.4 µM (active); on Troponin, cardiac muscle it was 18.8 µM (inactive). In addition, the AC50 at ORF 73 was 51.6 µM (active); on Keap1/Nrf2 it was > 52 µM (inactive); in test [7], 8.56 µM (active); in test [8], 52.3 µM (active). The IC50 at Fibrinogen beta chain [9] was 8.51 µM (active); on Fibrinogen beta chain [10], > 83.3 µM (inactive).
`CNC(=O)c1cn(CCOc2ccccc2)c2ccccc12`: the IC50 in test [11] was > 100 µM (inactive); in test [12], > 100 µM (inactive); in test [13], 86.8 µM (active); in [14] it was > 100 µM (inactive).
